Like-named read-outs stand apart in the source and are kept apart here.
Assays:
[1] = test system: S. cerevisiae yeast cells (YMR4 and INVSC, with or without AtPGP-1); experiment: Yeast growth in suspension with extracellular ATP, adenosine, phosphate and cycloheximide (turbidity OD600); format: cell-based; conditions: for effect on resistance to cycloheximide: YMR4 cells, added to media with cycloheximide, 72 hours, FIG. 14; for yeast growth in high levels of ATP: 100 mM ATP, FIG. 13
Experimental: Cell lines: Cell lines were the same as those described above in Example 2 and 3. YMR4 MDR1 is the phosphatase mutant yeast strain overexpressing AtPGP-1; YMR4 pVT11 contains vector alone; INVSC MDR1 is the wild-type yeast strain overexpressing AtPGP-1; and INVSC pVT101 contains vector alone.
Selection in drug: To create drug resistant yeast strains, all four cell lines were grown up in the presence of 500 ng/ml of cycloheximide, and transferred to other cycloheximide containing plates after a period of four to six days. This transfer of cell lines and subculturing continued such that the yeast cells grew in the presence of cycloheximide for a period of at least a month.
Growth of cells in suspension for ATP and drug selection experiments: Cells were transferred into 5 ml YNB -URA liquid media for turbidity measurements. All cell lines (both non-drug selected and drug-selected) were grown in media with the addition of either nothing, 500 ng/ml cycloheximide, 100 mM ATP, or 500 ng/ml cycloheximide and 100 mM ATP. Turbidity readings were taken after 48 hours.
Growth of cell lines in suspension for salvage pathway experiments: All cell lines were grown in liquid media either containing drug (for the drug selected lines) or not containing drug (for the non-drug selected lines). When the cultures reached a turbidity of 1.00 as measured at a wavelength of 600 in a spectrophotometer (OD600=1.00), 10 μl of each culture was then removed and placed in either media with nothing added, 3 mM potassium phosphate; 3 mM adenosine; 9 mM potassium phosphate and 3 mM adenosine (for controls); potassium phosphate and cycloheximide; adenosine and cycloheximide; adenosine, cycloheximide, and potassium phosphate. Cell cultures were further grown for 72 hours, and their turbidity was determined by OD600 readings on a spectrophotometer.

[2] = test system: wild-type yeast strain INVSC with plasmid pvtl01-U; experiment: Yeast filter disk zone of inhibition with fungicide chlorothalonil with or without ecto-phosphatase inhibitor; format: cell-based, S. cerevisiae; conditions: plates without ecto-phosphatase inhibitor, 48 hours
Experimental: Increasing Yeast Sensitivity to Fungicide. Additional experiment were performed to test the ability of ecto-phosphatase inhibitors to increase the effectiveness of the commonly used fungicide chlorothalonil. Yeast was plated on media with or without an ecto-phosphatase inhibitor of Formula X where a paper filter disk soaked in the fungicide was added to the plate. After 48 hours, the zone of inhibition of yeast growth around the filter disk was calculated.
The wild-type yeast strain INVSC with plasmid pvtl01-U (for selection on media lacking uracil) was used in all experiments and each experiment was performed in triplicate. Media used was made by combining YNB (Bio 101, Vista, Calif.), the drop out supplement CSM-URA (Bio 101, Vista, CA), and glucose in water. […]
Twenty μl of an overnight saturated culture of yeast was plated onto each plate, spread, and allowed to dry for 20 minutes. […] The zone of inhibition of yeast growth around the disk was assessed after 48 hours.
Plates with chlorothalonil disks indeed contained a zone of inhibition surrounding the disk. […] The zone of inhibition was calculated by measuring the radius from the center of the disk to the point of noticeable yeast growth (at least 10 measurements per plate), averaging the radii measurements, and using the average radius of the plates to calculate the circular area of the zone of inhibition.

[3] = test system: Arabidopsis thaliana WS wild-type plants; experiment: Plant sensitivity to herbicides with or without ecto-phosphatase inhibitor; format: in vivo; conditions: inhibitor 5 μg/ml; surflan solution 0.2-20 μl/ml in germination media
Experimental: Increasing Plant Sensitivity to Herbicides: Arabidopsis thaliana WS wild-type plants were plated on germination media containing two commonly used herbicides, surflan and pendimethalin, in the presence and absence of an ecto-phosphatase inhibitor of Formula II and monitored for their growth in a 22° C. incubator under constant fluorescent illumination.
More specifically, germination media was prepared containing 20 μl/ml, 10 μl/ml, 2 μl/ml, 1 μl/ml, and 0.2 μl/ml of a surflan solution made at the manufacturer's recommended concentration. Compound of Formula II was added to a portion of the germination media at a final concentration of 5 μg/ml.
Arabidopsis thahiana WS wild-type seeds were surface sterilized in a 20% bleach solution for 20 minutes, washed three times in double distilled waster, and resuspended in 0.1% agarose solution. The seeds were then pipetted onto plates containing approximately 3 ml of germination media containing the various concentrations of surflan with and without compound of Formula II. All plates were placed in a 22° C. incubator under constant fluorescent illumination. Growth was assessed daily.
Similar experiments were performed with pendimethalin in the presence and absence of compound of Formula II.

[4] = test system: Arabidopsis thaliana plants (wild-type and AtPGP-1 overexpressing); format: in vivo; conditions: for germination: phosphatase inhibitor 1 mM plus cycloheximide 500 ng/ml; for germination rate: substance alone (cycloheximide 500 ng/ml or phosphatase inhibitor 1 mM), after 10-20 days
Experimental: Plant Growth: Arabidopsis seeds were sown in a solid germination media containing MS salts (Sigma Chemical, St. Louis, Mo.), 2% sucrose, 0.8% agar, and vitamins (Valvekens et al., 1992). For selection assays, one of the following, or a combination of both, was added to media (cooled to less than 50° C. before adding) immediately prior to pouring into plates: cycloheximide at a final concentration of 500 ng/ml; α,β-methyleneadenosine 5′-diphosphate at a final concentration of 1 mM. Plant growth was measured by germination percentage after 10-20 days. All other materials and methods were discussed above in Example 2.

[5] = test system: Saccharomyces cerevisiae INVSC1 and YMR4; experiment: Yeast growth selection in drug (plates / liquid turbidity); format: cell-based
Description: Expression of AtPGP-1 in yeast: The AtPGP-1 cDNA (Arabidopsis thaliana MDR gene, accession #X61370) was subdloned into pVT101 downstream of the ADH promoter to create the AtPGP-1/pVT101 construct. AtPGP-1/pVT101 and pVT101 were transformed into Saccharomyces cerevisiae INVSC1 (genotype: MAT, his3-1, leu2, trp1-289, ura3-52) and YMR4 (genotype: MAThis3-11,15, leu2-3, 112ura35, can Res pho5, 3::ura31) by a PEG lithium acetate procedure (Eble, 1992) and selected on uracil dropout medium.
Yeast Growth: Yeast were grown at 30° C. under conditions of constant selection for uracil auxotrophy. YNB (Bio101, Vista, Calif.) supplemented with CSM (uracil dropout) and 2% glucose was used to grow strains having pVT101 constructs. Cycloheximide (Sigma Chemical, St. Louis, Mo.) was added to liquid media or spread on solid media to achieve a final concentration of 500 ng/ml. Nigericin (Sigma Chemical, St. Louis, Mo.) was added to liquid media or spread on solid media to achieve a final concentration of 25 μg/ml. Yeast strains used in cycloheximide selection assays were always propagated in the presence of the cycloheximide on plates and then streaked onto new plates containing drug or no drug, such that induced resistance existed in each strain at the time of the start of the assay. For selection assays on plates, single colonies were streaked; for selection in liquid media 0.01 ml of saturated culture was added to fresh media containing the drug. The plates shown in figures were grown for 3-5 days before photographs were taken. Yeast selection assays in liquid media were quantitated by turbidity as measured by absorbance at OD600.
The same result was obtained when the yeast strains were cultured in nigericin (FIG. 3C, FIG. 3D, FIG. 5B, FIG. 5C). In FIG. 3C and 3D, starting from the top of the dish clockwise, the cells are as follows: INVSC1 (wild-type) overexpressing AtPGP-1, YMk4 containing the vector alone, YMR4 overexpressing AtPGP-I, and INVSC1 containing the vector alone. When grown without drug, all the cells grow (FIG. 3C). […]

[6] = test system: ecto-apyrase of plasma membrane of cholinergic nerve terminal of Torpedo marmorata electric organs; conditions: Marti et al., 1996; cited from earlier work
[7] = YMR4 (extracellular phosphatase deficient), vector alone, cycloheximide 500 ng/ml or nigericin 25 μg/ml

Nc1ncnc2c1ncn2[C@@H]1O[C@H](CO)[C@@H](O)[C@H]1O [adenosine]
effect on resistance to cycloheximide [1]: did not enhance resistance

N#Cc1c(Cl)c(Cl)c(Cl)c(C#N)c1Cl [chlorothalonil]
average radius of inhibition [2]: 0.33 in.

Cc1cccc(NS(=O)(=O)c2ccc(-c3ccccc3)cc2)c1 [Formula II]
effectiveness of surflan as weed killer in presence of inhibitor [3]: equally effective weed killer at a five fold less concentration

Nc1ncnc2c1ncn2[C@@H]1O[C@H](COP(=O)(O)CP(=O)(O)O)[C@@H](O)[C@H]1O [α,β-methyleneadenosine 5′-diphosphate]
germination ([4]; AtPGP-1 overexpressing plants): no germination at all | germination rate ([4]; AtPGP-1 overexpressing plants): 83% | germination ([4]; wild-type plants): no germination at all | germination rate ([4]; wild-type plants): 90%

CO[C@@H]1C[C@@H](C[C@H]2CC[C@H](C)[C@H]([C@@H](C)C(=O)O)O2)O[C@]2(O[C@](C)([C@H]3CC[C@@](C)([C@@H]4O[C@@H]([C@H]5O[C@@](O)(CO)[C@H](C)C[C@@H]5C)C[C@@H]4C)O3)C[C@H]2C)[C@@H]1C [nigericin]
yeast growth in drug [5, 7]: reduced growth

Nc1ncnc2c1ncn2[C@@H]1O[C@H](COP(=O)(O)OP(=O)(O)OP(=O)(O)O)[C@@H](O)[C@H]1O [ATP]
yeast growth in high levels of ATP and drug ([1]; 100 mM ATP plus 500 ng/ml cycloheximide, cell lines previously resistant to drug): unable to grow | yeast growth in high levels of ATP ([1]; cells not previously selected in drug): able to grow | yeast growth in high levels of ATP ([1]; cells previously grown in drug (cycloheximide-selected), not overexpressing AtPGP-1): not able to grow

Cc1ccc(C(=O)Nc2ccc(S(=O)(=O)O)c3cc(S(=O)(=O)O)cc(S(=O)(=O)O)c23)cc1NC(=O)c1cccc(NC(=O)Nc2cccc(C(=O)Nc3cc(C(=O)Nc4ccc(S(=O)(=O)O)c5cc(S(=O)(=O)O)cc(S(=O)(=O)O)c45)ccc3C)c2)c1 [Suramin, 8,8′[Carbonylbis[imino-3,1-phenylenecarbonylimino(4-methyl-3,1-phenylene)carbonylimino]]bis-1,3,5-naphthalenetrisulfonic acid]
inhibition of ecto-apyrase activity [6]: potent non-competitive inhibitor

O=P(O)(O)O [phosphate, potassium phosphate]
effect on resistance to cycloheximide [1]: did not enhance resistance

C[C@@H]1C[C@@H]([C@H](O)CC2CC(=O)NC(=O)C2)C(=O)[C@@H](C)C1 [cycloheximide]
germination rate ([4]; AtPGP-1 overexpressing plants): 50% | germination rate ([4]; wild-type plants): 2% | yeast growth in drug [5, 7]: did not grow | yeast growth in drug ([5]; wild-type INVSC1, cycloheximide 500 ng/ml): did grow
